What all share (format): cell-based
In experiment [1] the target is T1, human EDG8 (S1PR5) receptor (Homo sapiens, UniProt Q9H228).
T1 construct: carries the transgenes human EDG8 (S1PR5) receptor (Acession number NP_110387.1); expressed in transfected cells; host or cells: CHO-A21-EDG8#12 (CHO clone co-expressing mitochondrial aequorin and chimaeric Gaqi5)
Nature of the experiment: Aequorin assay, agonist potency, CHO-A21-EDG8#12 cells. The note with it: agonist mode, aequorin luminescence; read-out: S1P5 EC50 range #. The method in brief: (§1)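 CHO cells coexpressing receptor, mitochondrial aequorin and Gαqi5 (S1P3 pool: GNA16) were loaded overnight at RT with 5 μM coelenterazine h in 0.1% fatty-acid-free BSA buffer. Cells were injected onto compound, luminescence recorded 90 s and integrated, normalised to digitonin or 20 μM ATP; sigmoidal fit.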

The target of the next experiment is T2, S1P4 (Homo sapiens, UniProt O95977).
T2 sequence (O95977 1-384): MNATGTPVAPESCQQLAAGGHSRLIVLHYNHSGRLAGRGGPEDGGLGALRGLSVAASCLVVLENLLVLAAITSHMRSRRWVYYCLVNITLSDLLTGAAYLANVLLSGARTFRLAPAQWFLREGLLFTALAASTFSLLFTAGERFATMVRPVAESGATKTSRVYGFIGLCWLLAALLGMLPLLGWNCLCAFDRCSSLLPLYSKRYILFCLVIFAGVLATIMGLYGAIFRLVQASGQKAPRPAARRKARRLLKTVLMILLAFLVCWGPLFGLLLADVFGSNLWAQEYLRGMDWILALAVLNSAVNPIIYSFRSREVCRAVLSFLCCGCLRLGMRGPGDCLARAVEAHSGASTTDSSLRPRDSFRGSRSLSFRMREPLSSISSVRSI
Nature of the experiment: Aequorin assay, agonist potency, S1P4. The note with it: agonist mode, aequorin luminescence. In a few lines:
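Aequorin luminescence read over 90 s after adding coelenterazine h–loaded cells (5 μM, overnight, RT) to test compound in phenol red-free DMEM/F12 buffer containing 0.1% fatty acid-free BSA. Responses integrated, scaled to the 100% signal from 100 μM digitonin or 20 μM ATP, and fitted to a sigmoidal dose-response model.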

The target in experiment [2] is T3, human EDG1 (S1PR1) receptor (Homo sapiens, UniProt P21453).
T3 construct: expressed in transfected cells; host or cells: CHO-A21-Edg1#17 (CHO clone co-expressing mitochondrial aequorin and chimaeric Gaqi5)
Nature of the experiment: Aequorin assay, agonist potency, CHO-A21-Edg1#17 cells. The note with it: agonist mode, aequorin luminescence; read-out: S1P1 EC50. In a few lines: as §1

Molecules are shown by their SMILES.

T1 sequence (Q9H228 whole entry): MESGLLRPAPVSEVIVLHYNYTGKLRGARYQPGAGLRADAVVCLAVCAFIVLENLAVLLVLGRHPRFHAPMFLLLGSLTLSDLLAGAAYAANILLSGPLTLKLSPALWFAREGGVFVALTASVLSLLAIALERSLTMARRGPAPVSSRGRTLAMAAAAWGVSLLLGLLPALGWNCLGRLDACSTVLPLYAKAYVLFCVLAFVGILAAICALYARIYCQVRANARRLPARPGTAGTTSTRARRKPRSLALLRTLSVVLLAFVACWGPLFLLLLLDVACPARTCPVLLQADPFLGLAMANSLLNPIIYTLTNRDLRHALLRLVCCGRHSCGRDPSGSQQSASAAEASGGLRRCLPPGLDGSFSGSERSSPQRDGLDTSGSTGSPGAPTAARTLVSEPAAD
T3 sequence (P21453 whole entry): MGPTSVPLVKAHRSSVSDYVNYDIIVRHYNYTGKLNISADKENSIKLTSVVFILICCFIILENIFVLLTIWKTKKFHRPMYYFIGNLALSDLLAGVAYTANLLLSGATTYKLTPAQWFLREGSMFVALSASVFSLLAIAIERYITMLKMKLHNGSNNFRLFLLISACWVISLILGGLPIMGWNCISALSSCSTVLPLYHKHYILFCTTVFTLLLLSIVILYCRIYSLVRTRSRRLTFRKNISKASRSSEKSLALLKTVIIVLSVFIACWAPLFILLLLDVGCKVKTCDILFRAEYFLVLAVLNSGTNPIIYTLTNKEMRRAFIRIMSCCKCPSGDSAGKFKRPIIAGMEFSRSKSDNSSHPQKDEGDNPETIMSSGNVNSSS

As to `O=C(O)C1(CN2CC3(Cc4ccc(OCc5ccc(Cl)cc5Cl)cc4C3)C2)CC1` [Example 38, 1-((5′-((2,4-dichlorobenzyl)oxy)-1′,3′-dihydrospiro[azetidine-3,2′-inden]-1-yl)methyl)cyclopropanecarboxylic acid], the results for the concentration for a half-maximal effect (EC50) (in experiment [1]; at S1P4; in experiment [2]) were 1 to 10 µM, below 1 µM and above 1 µM, respectively.

Take `O=C(O)C1(CN2CC3(Cc4ccc(OCc5ccc(OCC6CC6)cc5)cc4C3)C2)CC1` [Example 128, 1-((5′-((4-(cyclopropylmethoxy)benzyl)oxy)-1′,3′-dihydrospiro[azetidine-3,2′-inden]-1-yl)methyl)cyclopropanecarboxylic acid]: the EC50 was 1 to 10 µM in experiment [1], above 1 µM on S1P4 and above 1 µM in experiment [2].

On to `CCc1cccc(Cl)c1COc1ccc2c(c1)OC1(C2)CN(CC(=O)O)C1` [Example 158, 2-(6′-((2-chloro-6-ethylbenzyl)oxy)-3′H-spiro[azetidine-3,2′-benzofuran]-1-yl)acetic acid], for which the EC50 in experiment [1] was at most 0.01 µM; on S1P4, below 1 µM; in experiment [2], below 1 µM.

For the compound `O=C(O)C1(CN2CC3(Cc4ccc(OC5CCc6ccccc65)cc4C3)C2)CC1` (stereo not drawn) [Example 130, 1-((5′-((2,3-dihydro-1H-inden-1-yl)oxy)-1′,3′-dihydrospiro[azetidine-3,2′-inden]-1-yl)methyl)cyclopropanecarboxylic acid], the EC50 in experiment [1] is 1 to 10 µM; on S1P4, below 1 µM; in experiment [2], above 1 µM.

With `O=C(O)CN1CC2(Cc3ccc(OCCOc4ccc(Cl)cc4)cc3C2)C1` [Example 71, 2-(5′-(2-(4-chlorophenoxy)ethoxy)-1′,3′-dihydrospiro[azetidine-3,2′-inden]-1-yl)acetic acid], the EC50 in experiment [1] was 1 to 10 µM; at S1P4, above 1 µM; in experiment [2], above 1 µM.

In the case of `CC(C)Oc1ccc(C#Cc2ccc3c(c2)CC2(C3)CN(CC(=O)O)C2)cn1` [Example 75, 2-(5′-((6-isopropoxypyridin-3-yl)ethynyl)-1′,3′-dihydrospiro[azetidine-3,2′-inden]-1-yl)acetic acid], the EC50 in experiment [1] is at most 0.01 µM; at S1P4 it was above 1 µM; in experiment [2], below 1 µM.

Regarding `COc1ccc(COc2ccc3c(c2)CC2(C3)CN(C3CC(C(=O)O)C3)C2)c(C)n1` (stereo not drawn) [Example 88, 3-(5′-((6-methoxy-2-methylpyridin-3-yl)methoxy)-1′,3′-dihydrospiro[azetidine-3,2′-inden]-1-yl)cyclobutanecarboxylic acid], the EC50 in experiment [1] is 1 to 10 µM; at S1P4, below 1 µM; in experiment [2], above 1 µM.

With `CCCc1ccc(COc2ccc3c(c2)CC2(C3)CN(CC3(C(=O)O)CC3)C2)c(OC)c1` [Example 2, 1-((5′-((2-methoxy-4-propylbenzyl)oxy)-1′,3′-dihydrospiro[azetidine-3,2′-inden]-1-yl)methyl)cyclopropanecarboxylic acid], the EC50 was 1 to 10 µM in experiment [1], below 1 µM at S1P4 and above 1 µM in experiment [2].

Take `O=C(O)C1(CN2CC3(Cc4ccc(OCCc5ccc(Cl)cc5)cc4C3)C2)CC1` [Example 55, 1-((5′-(4-chlorophenethoxy)-1′,3′-dihydrospiro[azetidine-3,2′-inden]-1-yl)methyl)cyclopropanecarboxylic acid]: the EC50 in experiment [1] was 1 to 10 µM; on S1P4, below 1 µM; in experiment [2], above 1 µM.

Consider `CC1CCC(C#Cc2ccc3c(c2)CC2(C3)CN(CC(=O)O)C2)CC1` (stereo not drawn) [Example 76, 2-(5′-((4-methylcyclohexyl)ethynyl)-1′,3′-dihydrospiro[azetidine-3,2′-inden]-1-yl)acetic acid], for which the values for the concentration giving a half-maximal response (EC50) (in experiment [1]; at S1P4; in experiment [2]) were at most 0.01 µM, below 1 µM and above 1 µM, respectively.

In the case of `CC(C)Oc1ccc(C#Cc2ccc3c(c2)CC2(C3)CN(CC3(C(=O)O)CC3)C2)cn1` [Example 114, 1-((5′-((6-isopropoxypyridin-3-yl)ethynyl)-1′,3′-dihydrospiro[azetidine-3,2′-inden]-1-yl)methyl)cyclopropanecarboxylic acid], the figures for the EC50 (in experiment [1]; at S1P4; in experiment [2]) were 0.1 to 1 µM, above 1 µM and above 1 µM, respectively.

Regarding `CCOc1ccc(COc2ccc3c(c2)CC2(C3)CN(CC3(C(=O)O)CC3)C2)cc1` [Example 35, 1-((5′-((4-ethoxybenzyl)oxy)-1′,3′-dihydrospiro[azetidine-3,2′-inden]-1-yl)methyl)cyclopropanecarboxylic acid], the figures for the EC50 (in experiment [1]; on S1P4; in experiment [2]) were 1 to 10 µM, below 1 µM and above 1 µM, respectively.

Regarding `O=C(O)C1(CN2CC3(Cc4ccc(OCCc5cccc(F)c5)cc4C3)C2)CC1` [Example 148, 1-((5′-(3-fluorophenethoxy)-1′,3′-dihydrospiro[azetidine-3,2′-inden]-1-yl)methyl)cyclopropanecarboxylic acid], the EC50 in experiment [1] was 1 to 10 µM; on S1P4, below 1 µM; in experiment [2], above 1 µM.

In the case of `O=C(O)C1CC(N2CC3(Cc4ccc(OCc5c(Cl)cccc5Cl)cc4C3)C2)C1` (stereo not drawn) [Example 92, 3-(5′-((2,6-dichlorobenzyl)oxy)-1′,3′-dihydrospiro[azetidine-3,2′-inden]-1-yl)cyclobutanecarboxylic acid], the figures for the EC50 (in experiment [1]; on S1P4; in experiment [2]) were at most 0.01 µM, below 1 µM and above 1 µM, respectively.

Regarding `Cc1cccc(CCCOc2ccc3c(c2)CC2(C3)CN(CC3(C(=O)O)CC3)C2)n1` [Example 146, 1-((5′-(3-(6-methylpyridin-2-yl)propoxy)-1′,3′-dihydrospiro[azetidine-3,2′-inden]-1-yl)methyl)cyclopropanecarboxylic acid], the EC50 in experiment [1] was 1 to 10 µM; on S1P4 it was above 1 µM; in experiment [2] it was above 1 µM.

In the case of `O=C(O)C1CC(N2CC3(Cc4ccc(OCc5cc(Cl)ccc5Cl)cc4C3)C2)C1` (stereo not drawn) [Example 93, 3-(5′-((2,5-dichlorobenzyl)oxy)-1′,3′-dihydrospiro[azetidine-3,2′-inden]-1-yl)cyclobutanecarboxylic acid], the EC50 in experiment [1] is 0.01 to 0.1 µM; at S1P4 it was below 1 µM; in experiment [2], above 1 µM.

For the compound `O=C(O)CN1CC2(Cc3ccc(C#Cc4ccc(Cl)cc4)cc3O2)C1` [Example 149, 2-(6′-((4-chlorophenyl)ethynyl)-3′H-spiro[azetidine-3,2′-benzofuran]-1-yl)acetic acid], the figures for the EC50 (in experiment [1]; at S1P4; in experiment [2]) were 1 to 10 µM, above 1 µM and above 1 µM, respectively.

As to `CCOc1c(F)cc(COc2ccc3c(c2)CC2(C3)CN(CC3(C(=O)O)CC3)C2)cc1F` [Example 120, 1-((5′-((4-ethoxy-3,5-difluorobenzyl)oxy)-1′,3′-dihydrospiro[azetidine-3,2′-inden]-1-yl)methyl)cyclopropanecarboxylic acid], the results for the EC50 (in experiment [1]; at S1P4; in experiment [2]) were 1 to 10 µM, below 1 µM and above 1 µM, respectively.

As to `O=C(O)C1CC(N2CC3(Cc4ccc(OCc5cccc6c5CCC6)cc4C3)C2)C1` (stereo not drawn) [Example 83, 3-(5′-((2,3-dihydro-1H-inden-4-yl)methoxy)-1′,3′-dihydrospiro[azetidine-3,2′-inden]-1-yl)cyclobutanecarboxylic acid], the EC50 in experiment [1] was 0.01 to 0.1 µM; on S1P4, below 1 µM; in experiment [2], above 1 µM.

As to `CCc1cccc(Cl)c1COc1ccc2c(c1)OC1(C2)CN(CC2(C(=O)O)CC2)C1` [Example 156, 1-((6′-((2-chloro-6-ethylbenzyl)oxy)-3′H-spiro[azetidine-3,2′-benzofuran]-1-yl)methyl)cyclopropanecarboxylic acid], the EC50 in experiment [1] was at most 0.01 µM; on S1P4, below 1 µM; in experiment [2], above 1 µM.

On to `O=C(O)C1(CN2CC3(Cc4ccc(-c5ccc(OCc6ccccc6)cc5)cc4C3)C2)CC1` [Example 53, 1-((5′-(4-(benzyloxy)phenyl)-1′,3′-dihydrospiro[azetidine-3,2′-inden]-1-yl)methyl)cyclopropanecarboxylic acid], for which the results for the EC50 (in experiment [1]; at S1P4; in experiment [2]) were 0.1 to 1 µM, below 1 µM and above 1 µM, respectively.

Turning to `O=C(O)CN1CC2(Cc3ccc(C#Cc4cccc(Cl)c4)cc3O2)C1` [Example 152, 2-(6′-((3-chlorophenyl)ethynyl)-3′H-spiro[azetidine-3,2′-benzofuran]-1-yl)acetic acid], the values for the EC50 (in experiment [1]; at S1P4; in experiment [2]) were at most 0.01 µM, below 1 µM and above 1 µM, respectively.

With `O=C(O)CN1CC2(Cc3ccc(OCCOc4ccccc4)cc3C2)C1` [Example 70, 2-(5′-(2-phenoxyethoxy)-1′,3′-dihydrospiro[azetidine-3,2′-inden]-1-yl)acetic acid], the figures for the EC50 (in experiment [1]; at S1P4; in experiment [2]) were 0.1 to 1 µM, below 1 µM and above 1 µM, respectively.

As a reminder, the EC50 is the concentration that produces a half-maximal response.

Values taken from patent publication US20200055817A1 (AbbVie Deutschland GmbH & Co. KG, priority 2016, published 2020).
